Consider 21 compounds from ChEMBL document CHEMBL1201862, “PubChem BioAssay data set” (2004).

The target in one series is Nonstructural protein 1 (Influenza A virus, UniProt Q194T2). The series is classed as functional, Influenza A virus (A/California/07/2009(H1N1)).
The subject of a further series is H9c2. As to the kind of experiment: cells. The conditions noted are these: Rattus norvegicus, H9c2, Myocardium. It is filed as functional, cell-based.
Series [1] deals with T1, Cytochrome P450 3A4 (Homo sapiens, UniProt P08684). The conditions noted are these: Potency.
T1 sequence (P08684 whole entry): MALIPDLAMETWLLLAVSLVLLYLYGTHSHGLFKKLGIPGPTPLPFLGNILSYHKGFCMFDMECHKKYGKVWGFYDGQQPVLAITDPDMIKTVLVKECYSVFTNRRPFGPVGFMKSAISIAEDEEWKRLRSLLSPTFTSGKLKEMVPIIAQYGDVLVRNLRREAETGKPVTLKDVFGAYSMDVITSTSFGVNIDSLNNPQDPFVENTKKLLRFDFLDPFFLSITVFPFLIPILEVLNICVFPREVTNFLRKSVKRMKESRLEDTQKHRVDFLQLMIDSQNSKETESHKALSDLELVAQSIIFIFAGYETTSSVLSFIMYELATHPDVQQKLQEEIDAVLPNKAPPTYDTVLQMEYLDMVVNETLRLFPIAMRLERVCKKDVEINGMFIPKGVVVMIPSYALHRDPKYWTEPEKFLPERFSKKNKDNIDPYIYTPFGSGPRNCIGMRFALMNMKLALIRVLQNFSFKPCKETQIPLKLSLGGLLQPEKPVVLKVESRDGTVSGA
Series [2] is described as follows: HepG2 cell cytotoxicity, dose response, cytotoxicity control, cherry-picked samples (AID 1159577). It is filed as functional, cell-based.
Series [3] in a line: P. falciparum Dd2 growth inhibitors, dose response, SYBR Green, cherry-picked samples (AID 1159567). It is filed as functional, cell-based.
Series [4] deals with Vero. As to the kind of experiment: cells. The conditions noted are these: Chlorocebus sabaeus. It is filed as functional, cell-based.
In a further series the target is T2, Cytochrome P450 1A2 (Homo sapiens, UniProt P05177).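 Note: PubChem cytochrome P450 panel assay, CYP1A2 panel member.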
T2 sequence (P05177 whole entry): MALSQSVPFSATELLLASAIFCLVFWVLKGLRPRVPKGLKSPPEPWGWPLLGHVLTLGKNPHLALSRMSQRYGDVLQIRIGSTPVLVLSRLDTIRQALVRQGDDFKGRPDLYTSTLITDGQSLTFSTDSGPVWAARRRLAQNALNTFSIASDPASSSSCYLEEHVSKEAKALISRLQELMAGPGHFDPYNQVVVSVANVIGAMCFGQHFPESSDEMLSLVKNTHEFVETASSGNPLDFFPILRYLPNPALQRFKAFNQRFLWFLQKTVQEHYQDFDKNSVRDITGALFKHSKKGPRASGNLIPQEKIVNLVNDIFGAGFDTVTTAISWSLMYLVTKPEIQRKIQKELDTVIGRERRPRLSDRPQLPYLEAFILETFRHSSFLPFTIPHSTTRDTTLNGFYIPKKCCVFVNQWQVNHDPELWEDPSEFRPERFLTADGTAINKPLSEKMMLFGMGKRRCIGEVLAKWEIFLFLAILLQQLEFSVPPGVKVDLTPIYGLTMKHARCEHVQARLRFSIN

Series [5] deals with T3, Cytochrome P450 2C9 (Homo sapiens, UniProt P11712).
T3 sequence (P11712 whole entry): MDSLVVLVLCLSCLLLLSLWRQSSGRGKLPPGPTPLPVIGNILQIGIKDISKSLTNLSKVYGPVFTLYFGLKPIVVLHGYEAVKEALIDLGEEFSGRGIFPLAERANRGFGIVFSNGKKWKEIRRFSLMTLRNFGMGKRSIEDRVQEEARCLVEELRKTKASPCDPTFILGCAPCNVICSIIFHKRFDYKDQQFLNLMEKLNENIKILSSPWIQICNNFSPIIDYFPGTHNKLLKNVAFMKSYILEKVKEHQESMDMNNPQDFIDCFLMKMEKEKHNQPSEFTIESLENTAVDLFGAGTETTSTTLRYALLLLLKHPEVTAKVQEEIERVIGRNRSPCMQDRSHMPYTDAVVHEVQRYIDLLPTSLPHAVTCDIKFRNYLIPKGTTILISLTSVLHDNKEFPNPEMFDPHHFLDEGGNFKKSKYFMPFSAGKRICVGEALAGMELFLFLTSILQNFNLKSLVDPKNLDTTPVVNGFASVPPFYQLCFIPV
The target of a further series is Cytochrome P450 2D6 (Homo sapiens, UniProt P10635).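 Note: CYP2D6 member of a cytochrome P450 panel assay.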
Chain of Cytochrome P450 2D6 (P10635 whole entry): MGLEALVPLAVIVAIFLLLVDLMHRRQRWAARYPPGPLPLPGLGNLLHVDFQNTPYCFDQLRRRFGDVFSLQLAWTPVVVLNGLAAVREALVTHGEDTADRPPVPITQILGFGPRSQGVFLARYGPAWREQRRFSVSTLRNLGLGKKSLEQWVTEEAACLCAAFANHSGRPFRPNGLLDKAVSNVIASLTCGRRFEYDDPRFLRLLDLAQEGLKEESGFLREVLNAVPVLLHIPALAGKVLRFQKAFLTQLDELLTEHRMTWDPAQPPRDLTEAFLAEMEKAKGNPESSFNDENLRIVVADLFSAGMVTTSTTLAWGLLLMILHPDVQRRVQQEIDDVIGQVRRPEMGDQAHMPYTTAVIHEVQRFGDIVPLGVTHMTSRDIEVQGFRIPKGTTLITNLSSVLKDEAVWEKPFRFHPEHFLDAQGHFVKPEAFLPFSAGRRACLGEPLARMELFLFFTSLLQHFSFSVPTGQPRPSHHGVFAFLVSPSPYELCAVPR
Series [6] addresses T3, Cytochrome P450 2C9. The source holds these as a separate data set.
Series [7] concerns the target T1, Cytochrome P450 3A4.
The target of a further series is Paired box protein Pax-8 (Homo sapiens, UniProt Q06710). In words: inhibitors of PAX8-driven TPO luciferase reporter, dose response, RMG-I cells, cherry-pick (AID 687027).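 Note: luciferase reporter driven by Pax8 target thyroperoxidase promoter measured by SteadyGlo luminescence.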 The series is classed as functional, cell-based. On the technique in general: In a reporter assay the amount or activity of a reporter protein is the signal.
Chain of Paired box protein Pax-8 (Q06710 whole entry): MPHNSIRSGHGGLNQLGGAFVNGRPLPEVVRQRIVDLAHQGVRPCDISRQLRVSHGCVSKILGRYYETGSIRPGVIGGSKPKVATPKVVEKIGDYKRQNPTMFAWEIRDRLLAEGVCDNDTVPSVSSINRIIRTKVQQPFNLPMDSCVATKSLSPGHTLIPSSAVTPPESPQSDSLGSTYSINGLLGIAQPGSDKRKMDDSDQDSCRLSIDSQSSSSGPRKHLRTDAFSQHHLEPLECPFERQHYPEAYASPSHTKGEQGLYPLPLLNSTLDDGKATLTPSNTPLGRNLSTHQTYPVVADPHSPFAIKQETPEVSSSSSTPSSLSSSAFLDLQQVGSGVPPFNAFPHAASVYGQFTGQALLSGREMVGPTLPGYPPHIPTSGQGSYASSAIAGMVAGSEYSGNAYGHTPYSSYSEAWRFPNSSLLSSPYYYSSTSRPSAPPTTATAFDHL
For the next series, the target named is T4, Protein skinhead-1 (Caenorhabditis elegans, UniProt P34707).
T4 sequence (P34707 whole entry): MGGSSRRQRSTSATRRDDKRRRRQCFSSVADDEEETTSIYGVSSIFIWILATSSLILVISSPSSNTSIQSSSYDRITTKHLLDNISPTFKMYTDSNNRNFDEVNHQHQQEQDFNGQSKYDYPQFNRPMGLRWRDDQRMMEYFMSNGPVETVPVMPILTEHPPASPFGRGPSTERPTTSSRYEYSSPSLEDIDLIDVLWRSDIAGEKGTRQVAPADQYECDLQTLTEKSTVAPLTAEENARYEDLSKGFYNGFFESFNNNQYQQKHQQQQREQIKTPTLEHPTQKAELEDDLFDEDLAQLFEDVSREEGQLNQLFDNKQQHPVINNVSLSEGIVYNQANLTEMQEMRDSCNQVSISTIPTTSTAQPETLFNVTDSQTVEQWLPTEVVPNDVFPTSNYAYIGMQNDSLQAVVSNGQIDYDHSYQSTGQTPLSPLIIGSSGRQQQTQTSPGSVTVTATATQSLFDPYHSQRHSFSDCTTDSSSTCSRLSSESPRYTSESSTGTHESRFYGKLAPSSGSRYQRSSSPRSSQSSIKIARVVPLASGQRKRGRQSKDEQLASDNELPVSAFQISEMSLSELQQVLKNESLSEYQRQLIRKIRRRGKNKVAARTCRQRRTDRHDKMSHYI
It is filed as functional.

Series [8] in a line: inhibitors of HIV Env-driven cell fusion, dose response, cherry-pick (AID 652057). It is filed as functional, cell-based.
In series [9] the test system is Vero. In words: cells. The series is classed as functional. The following applies: Chlorocebus sabaeus.
Series [10] is described as follows: Luminescence Cell-Based Dose Retest to Confirm Inhibitors of Cancer Stem Cells. [Related pubchem assays (depositor defined):AID2717, AID2721]. The conditions noted are these: Homo sapiens. The series is classed as functional.
For another series, the target named is T5, Protein RecA (Mycobacterium tuberculosis, UniProt P9WHJ3).
T5 sequence (P9WHJ3 whole entry): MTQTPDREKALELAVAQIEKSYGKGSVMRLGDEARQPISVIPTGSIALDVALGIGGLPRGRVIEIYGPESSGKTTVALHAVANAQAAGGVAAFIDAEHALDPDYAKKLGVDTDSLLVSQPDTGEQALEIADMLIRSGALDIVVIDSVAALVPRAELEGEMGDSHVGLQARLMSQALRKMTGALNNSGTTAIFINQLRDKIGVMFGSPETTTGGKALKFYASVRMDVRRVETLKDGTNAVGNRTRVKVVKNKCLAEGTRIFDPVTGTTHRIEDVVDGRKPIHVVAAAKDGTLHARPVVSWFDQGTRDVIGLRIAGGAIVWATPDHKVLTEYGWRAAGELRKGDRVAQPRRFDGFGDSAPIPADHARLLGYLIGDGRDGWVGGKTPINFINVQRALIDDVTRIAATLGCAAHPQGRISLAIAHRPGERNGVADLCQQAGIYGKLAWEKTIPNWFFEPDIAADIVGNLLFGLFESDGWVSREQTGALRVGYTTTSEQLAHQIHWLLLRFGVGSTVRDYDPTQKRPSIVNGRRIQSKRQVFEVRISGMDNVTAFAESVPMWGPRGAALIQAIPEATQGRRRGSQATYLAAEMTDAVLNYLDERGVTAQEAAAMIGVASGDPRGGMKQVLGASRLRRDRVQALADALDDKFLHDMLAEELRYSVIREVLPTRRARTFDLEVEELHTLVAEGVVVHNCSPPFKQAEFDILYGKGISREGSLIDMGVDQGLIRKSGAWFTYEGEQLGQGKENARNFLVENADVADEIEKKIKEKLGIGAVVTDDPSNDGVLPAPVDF
As to the kind of experiment: Fluorescence Cell-Free Homogeneous Dose Retest to Identify Inhibitors of RecA-Intein Splicing Activity. [Related pubchem assays (depositor defined):AID2097, AID2223, AID489010, AID492950]. It is filed as functional.

Series [11] addresses T6, Replicative DNA helicase DnaB (Mycobacterium tuberculosis, UniProt P9WMR3).
T6 sequence (P9WMR3 whole entry): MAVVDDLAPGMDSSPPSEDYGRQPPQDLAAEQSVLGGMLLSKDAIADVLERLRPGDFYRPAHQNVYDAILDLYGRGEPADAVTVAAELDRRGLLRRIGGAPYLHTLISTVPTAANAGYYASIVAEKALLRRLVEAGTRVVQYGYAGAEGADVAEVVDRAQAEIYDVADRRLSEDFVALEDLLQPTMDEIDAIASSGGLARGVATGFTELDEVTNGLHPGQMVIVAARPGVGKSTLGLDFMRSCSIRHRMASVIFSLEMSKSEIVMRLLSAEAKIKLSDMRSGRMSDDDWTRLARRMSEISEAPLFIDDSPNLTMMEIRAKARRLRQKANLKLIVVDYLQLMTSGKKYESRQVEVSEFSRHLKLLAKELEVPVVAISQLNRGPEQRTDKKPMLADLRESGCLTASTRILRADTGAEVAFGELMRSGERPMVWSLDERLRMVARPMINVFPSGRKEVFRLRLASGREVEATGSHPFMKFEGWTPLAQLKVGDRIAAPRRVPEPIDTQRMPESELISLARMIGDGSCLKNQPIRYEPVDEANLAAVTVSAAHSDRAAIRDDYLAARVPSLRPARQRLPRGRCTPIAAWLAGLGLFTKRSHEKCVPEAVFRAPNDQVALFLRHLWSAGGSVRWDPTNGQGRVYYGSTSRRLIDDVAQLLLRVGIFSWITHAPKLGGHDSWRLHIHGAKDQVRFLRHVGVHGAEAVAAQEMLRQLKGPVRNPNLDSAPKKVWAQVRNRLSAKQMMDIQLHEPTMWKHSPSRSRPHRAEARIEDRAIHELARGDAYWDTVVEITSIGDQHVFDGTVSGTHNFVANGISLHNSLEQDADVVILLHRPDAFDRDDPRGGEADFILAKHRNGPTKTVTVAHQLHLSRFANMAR
In words: DnaB intein splicing inhibitors, dose response, biochemical, cell-free fluorescence (AID 449749). The series is classed as functional.

Molecules are shown by their SMILES. “And” between values parts separate entries of the source, which are not always exact repeats. Identical values can stand only once. The source made the active and inactive calls. Where only a bound is given, the exact number is not on record here.

Chain of Nonstructural protein 1 (Q194T2 whole entry): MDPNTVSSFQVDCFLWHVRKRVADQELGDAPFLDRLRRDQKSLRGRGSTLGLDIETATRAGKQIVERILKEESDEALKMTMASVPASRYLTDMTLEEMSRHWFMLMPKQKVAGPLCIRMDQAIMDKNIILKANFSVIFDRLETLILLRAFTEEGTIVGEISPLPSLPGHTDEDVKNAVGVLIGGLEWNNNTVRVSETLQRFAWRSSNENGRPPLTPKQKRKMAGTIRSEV

Broadly, the IC50 is the concentration that inhibits the measured activity by half. For the compound `Cc1ccc(OCC(=O)N/N=C/c2cccc3cccnc23)cc1`, the figures for the IC50 at Nonstructural protein 1 and with H9c2 were 25.6 µM (active) and 14.1 µM (active), respectively.

As usually defined, the AC50 is the concentration giving half of the maximal activity seen. For the compound `COc1cc(OC)c(C(C)=O)c(O)c1C`, on Cytochrome P450 3A4 [1], the concentration at half-maximal activity (AC50) was 0.316 µM (inconclusive). Turning to `Cc1cccc(-c2ccc([C@H]3[C@@H](CO)N4CCCCN(S(=O)(=O)c5cccc(C)c5)C[C@H]34)cc2)c1`, the AC50 in series [2] is 11.6 µM (active); in series [3], 1.87 µM (active). For `C#C[C@]1(OC(C)=O)CCC2C3CCC4=CC(=O)CCC4C3CC[C@]21C` (some centres undefined), the AC50 on Cytochrome P450 3A4 [1] was 39.8 µM (inconclusive). Take `Cc1cc(NC(=O)c2ccc3nccnc3c2)ccc1Br`: the IC50 in the series with Vero [4] is > 25 µM (active).

On to `Cc1[nH]c2ccc(O)cc2c1CCN`, for which the AC50 was 31.6 µM (inconclusive) and 20 µM (inconclusive) at Cytochrome P450 1A2; 39.8 µM (inconclusive) on Cytochrome P450 2C9 [5]; 20 µM (inconclusive) and 39.8 µM (inconclusive) at Cytochrome P450 2D6; 39.8 µM (inconclusive) at Cytochrome P450 2C9 [6]. Regarding `N#Cc1ccc(C23CC4(C2)[C@H](CN(P(=O)(c2ccccc2)c2ccccc2)[C@@H]4c2ccccc2)C3c2ccc(Cl)nc2)cc1` (some centres undefined), the AC50 on Cytochrome P450 3A4 [1] was 2 µM (inconclusive). `CCC1=C2CC[C@H]3C(=O)N(C)C(=O)[C@H]3[C@H]2[C@@]2(C)C(=O)N(CC(=O)OC)C(=O)N2C1=O`: the AC50 on Cytochrome P450 3A4 [1] is 25.1 µM (inconclusive). Same read-out and setting: as for `COC(=O)[C@]1(C)C[C@H]1[C@H](NP(=O)(c1ccccc1)c1ccccc1)c1ccccc1`, the figure is 12.6 µM (inconclusive). Consider `CO[C@H]1COC(=O)C/C=C\[C@@H](C)COC(=O)[C@H]2CCCN2C(=O)C/C=C\[C@H]1C`, for which the AC50 entry on Cytochrome P450 2C9 [5] is “inconclusive”. As to `CCCCN=C(S)NNC(=O)c1csc2c1CCC(C)C2` (centres undefined), the values for the concentration at half-maximal activity (AC50) entry at Cytochrome P450 2C9 [5], on Cytochrome P450 2D6 and on Cytochrome P450 3A4 [7] were “inconclusive”, 22.4 µM (inconclusive) and 15.8 µM (inconclusive), respectively. Consider `C[C@@H]1CN([C@@H](C)CO)C(=O)c2ccccc2-c2ccccc2CO[C@H]1CN(C)Cc1ccccc1C(F)(F)F`, for which the AC50 in series [2] is 7.72 µM (active); at Paired box protein Pax-8 it was 12.3 µM (active); in series [3], 2.97 µM (active). Take `CC[C@@H](c1ccccc1)n1c(=O)n2n(c1=O)[C@H]1[C@H](O)[C@H]3O[C@@H]3/C(=N/OC/C=C(\C)CCC=C(C)C)[C@@H]1CC2`: the figures for the AC50 result at Cytochrome P450 2C9 [5] and on Cytochrome P450 3A4 [7] were “inconclusive” and 3.98 µM (inconclusive), respectively.

On to `Cc1ccccc1-c1ccc([C@H]2[C@@H]3CN(Cc4cccnc4)C[C@H]2N3)cc1`, for which the AC50 in [2] was 24.4 µM (active); in series [3], 4.95 µM (active).

On to `CC1=NN(c2ccccc2)C(=O)/C1=C\C=C1/N(C)c2ccccc2C1(C)C`, for which the IC50 at Nonstructural protein 1 is 11.8 µM (active); on Protein skinhead-1 it was 21.9 µM (active). In the case of `Cc1ccccc1-c1ccc([C@@H]2[C@@H]3CN(Cc4cccnc4)C[C@H]2N3)cc1`, the AC50 in series [2] is 9.78 µM (active); in [3], 1.19 µM (active). For `N#Cc1cccc(-c2ccc([C@@H]3[C@@H]4CN(C(=O)Nc5ccc(C(F)(F)F)cc5)C[C@H]3N4)cc2)c1`, the AC50 is 10.5 µM (active) in series [2] and 4.72 µM (active) in series [3]. Take `c1ccc(-c2cn(C[C@H]3CC[C@@H]([C@@H]4CC[C@H](Cn5cc(-c6ccccn6)nn5)O4)O3)nn2)nc1`: the IC50 on Nonstructural protein 1 was 5.72 µM (active). On to `C[C@H]1CN([C@@H](C)CO)C(=O)Cc2cc(NS(=O)(=O)c3ccccc3)ccc2O[C@@H]1CN(C)Cc1ccc(Cl)c(Cl)c1`, for which the AC50 in series [8] is 37.1 µM (active).

Consider `COc1ccc(C2COc3c(ccc(O)c3OC)C2)c(OC)c1O` (centres undefined), for which the AC50 on Cytochrome P450 3A4 [1] is 25.1 µM (inconclusive). What is called CC50 is the concentration that lowers cell viability or growth by half. By EC50 is commonly meant the concentration at which the effect is half-maximal. Regarding `COc1cccc(/C=C/C(=O)c2ccc(NS(=O)(=O)c3ccc(C)cc3)cc2)c1`, in the series with Vero [9], the CC50 was 20.4 µM (active). The results for the AC50 in [10] and in series [11] were 2.91 µM (active) and 9.15 µM (active), respectively. At Protein RecA, the EC50 was 15.4 µM (active). Also, the IC50 in the series on Vero [4] is 24 µM (active).
